{"source": "patent US8466202B2", "about": "“Anthracenedione compounds” (Sunten Phytotech Co., Ltd., priority 2006, dated 2013)", "tested_on": "healthy male S.D. rats", "experiment": "Feces production in rats given Rheum palmatum Linne extracts for three weeks (Example 2)", "format": "in vivo, rat", "details": "oral everyday, Rheum palmatum crude extract 500, Bisacodyl 1.75, Sennosides 3.55, STD03 180, STD05-1 12, STD05-2 24 mg/kg; for Water content: feces; for Pellet count / Wet Weight: total of the six rats in the group", "procedure": "The laxative activities by Rheum palmatum Linne extracts were studied. A crude Rheum palmatum Linne extract and STD05 were obtained from SunTen Phytotech Co., Ltd. (Jhonghe City, Taiwan). Commercial available laxatives, Through® (Chung Mei Pharmaceutical Co., Ltd.; active ingredient: Sennosides 20 mg, as Sennosides A+B 12 mg, Lot. 009A 051) and Dulcolax® (Boehringer Ingelheim, Taiwan, Ltd.; active ingredient: Bisacodyl; Lot. 480-4942) were obtained from a pharmacy.\nForty-two healthy male S.D. rats (8 weeks old; National Laboratory Animal Center, Taiwan) were divided into seven groups (six in each) and tested for the laxative activity by Rheum palmatum Linne extracts. The rats in one group were not fed with any extract or drug and used as negative controls. The rats in the second and third group were given Sennosides (3.55 mg/kg) and Bisacodyl (1.75 mg/kg), respectively, and used as positive controls. The Rats in the other four groups were given Rheum palmatum Linne crude extract (500 mg/kg), filtered crude extract STD03 (180 mg/kg), and STD05 (STD05-1: 12 mg/kg and STD05-2: 24 mg/kg), respectively. All substances were administered orally everyday for three weeks.\nThe experiments were carried out under conditions in which temperature, humidity, and lighting were all controlled. Each rat was fed standard rat food and water ad libitum in housing that provided a 12-hour light/dark cycle. The rats were divided into seven groups according to the body weights.\nThe first part of the experiment studied the effect of the above-mentioned extracts on feces production. During the three-week period, any rat that appeared dying was euthanized, dissected, and studied to check for any illness or injures. Any complications or illness were analyzed by H&E stains to determine the cause of death and to allow for dosage reconsiderations for future experiments.\nDuring this period, the body weights of the rats were weighed each day and recorded. Feces of each rat were studied three times during the period for any unusual observations. Specifically, the amounts of feces were weighed on Days 11, 15, 18, and 21. During observation, each rat was placed in a metabolic cage. Feces were collected every twenty-four hours. The number of collected feces pellets was counted, and the pellets' shapes and colors were evaluated. After weighing the moist feces, they were dried in an oven at 100° C. for twenty-four hours. The water content from the feces was calculated according to the following formula: Water content percentage=[(wet weight−dry weight)/wet weight]×100%.\nIntestine motility data were expressed as mean±SD. Data were analyzed using the one-way ANOVA method. For comparison within the groups, a Post hoc Comparison was applied. In both feces production and intestine motility analyses, p<0.05 indicates significant differences. For the feces production tests, the data for each group and each time point represent the total wet weight or pellet count of the six rats in the group."}
{"smiles": "CC(=O)Oc1ccc(C(c2ccc(OC(C)=O)cc2)c2ccccn2)cc1", "note": "[Bisacodyl]", "values": [{"measurement": "Water content", "setting": "Day 11", "result": 64.45, "unit": "%"}, {"measurement": "Pellet count", "setting": "Day 11", "result": 116}, {"measurement": "Wet Weight", "setting": "Day 11", "result": 33.84, "unit": "g"}, {"measurement": "Water content", "setting": "Day 15", "result": 68.34, "unit": "%"}, {"measurement": "Pellet count", "setting": "Day 15", "result": 110}, {"measurement": "Wet Weight", "setting": "Day 15", "result": 41.64, "unit": "g"}, {"measurement": "Water content", "setting": "Day 18", "result": 66.65, "unit": "%"}, {"measurement": "Pellet count", "setting": "Day 18", "result": 81}, {"measurement": "Wet Weight", "setting": "Day 18", "result": 30.14, "unit": "g"}, {"measurement": "Water content", "setting": "Day 21", "result": 68.02, "unit": "%"}, {"measurement": "Pellet count", "setting": "Day 21", "result": 108}, {"measurement": "Wet Weight", "setting": "Day 21", "result": 40.13, "unit": "g"}]}
